What was measured:
[1] = tested on: Clone #69 CHO-K1 cells expressing EA-NLS/NRS and GR-PL; test: EFC assay in stable clone #69 (CHO-K1, EA-NLS/NRS and GR-PL) with or without RU486 pre-incubation; assay type: cell-based; conditions: for Avg luminescence readout / R1 luminescence readout / R3 luminescence readout / Ratio (Avg vs 0 conc): overnight, vehicle pre-incubation
Description: In the next experiment, a stable clone (clone #69) expressing both EA-NLS/NRS and GR-PL was isolated in a CHO-K1 parental background. […] 20,000 cells/well were plated in a 96 well white coming multi-well plate and allowed to adhere overnight. The next day, the cells were washed two times with serum free F12 media and 100 μL of serum free F12 media was added to the cells. The cells were then incubated in either vehicle (ethanol-1% final concentration) or 10 μM RU486 for one hour. To the cells, three different concentrations of dexamethasone (300, 100, 30 μM) (an agonist of GR), RU486 (30, 10, 3.33 μM), colchicine (1, 0.3, 0.1 μ/mL) or nocodazole (10, 3.33, 1.11 μg/mL) were added and the incubation went overnight at 37° C. with 5% CO2. The next day, the media was aspirated off and 100 μL of Tropix/ABI Gal screen cell lysis/substrate reagent was added to the cells. The plate was read on the Victor II reader at 30, 60 and 120 minutes.

[2] = tested on: CHO-K1+cyto-EA cells transfected with cJUN-PL; test: EFC mitotic index assay, CHO-K1+cyto-EA cells transiently transfected with cJUN-PL; assay type: cell-based; conditions: for Avg luminescence readout / R1 luminescence readout / R3 luminescence readout / Ratio (Avg vs 0 conc): overnight
Description: (§1) The initial test of the cell cycle arresting compounds was performed on a double stable cell line having both of the constructs expressing the EA-NLS/NRS and GR-PL. (PL is β-galactosidase enzyme donor fragment and EA is the enzyme acceptor fragment available from DiscoveRx, Fremont, CA.). The parental line, C2C12 is derived from mouse muscle cells. In the experiments in which EA-NLS/NRS and GR-PL are expressed in the C2C12 parental cell line, the constructs were generated by subcloning the human GR sequence into a MFG-based retroviral vector that had been molecularly altered in a lab at Stanford. An MFG vector is described in U.S. Pat. No. 6,544,771. The EA-NLS/NRS fragment was subcloned into a wzl-based retroviral vector again molecularly altered in a lab at Stanford. In the experiments performed using a CHO-K1 parental cell line background the EA-NLS/NRS was subcloned into the Kpn I and Xba I sites of pcDNA3.1 Hygro vector from Invitrogen (catalog #V870-20). The plasmid was introduced into the cells via FuGene6 (Roche) transfection reagent. Cells were selected in the presence of 250 μg/mL of Hygromycin and single cell clones isolated that expressed the EA-NLS/NRS. The human GR gene was cloned by PCR and subcloned into the Xho I and Bam HI sites of the DiscoveRx vector-pCMV-myc-PL (C3). The plasmid was introduced into the selected EA-NLS/NRS expressing clone isolated above by FuGene 6 transfection. Another round of screening in the presence of 300-500 μg/mL of G418 was used to select GR-PL transfected clones. Clonal selection was performed to finally identify the clone that was used in these studies. In the studies using the CHO-K1+cyto-EA and cJUN-PL, the same Invitrogen pcDNA3.1 Hygro vector was used to express EA. In this case, the EA fragment was subcloned into the Kpn I/Not I sites of pcDNA3.1 Hygro. The plasmid DNA was introduced as described above using FuGene6 reagent. Cells were selected in the presence of 250 μg/mL of hygromycin and clonal selection was performed. The c-Jun gene was generated by PCR using an existing template copy of the gene and then subcloned into the Xho I/Bam HI sites of pCMV-PL-myc (C3).
To further test the concept of sequestering of one β-galactosidase enzyme fragment in the nucleus (in this case PL) while localizing the other component in the cytoplasm (in this case EA) the following experiment was carried out. […] The cyto-EA cells were transiently transfected with cJUN-PL plasmid DNA. Two days after the transfection, the cells were re-plated into a 96 well Corning white clear bottom multiwell plate at 20,000 cells/well. The cells were allowed to adhere overnight and the next day were treated with titrating concentrations of the six different cell cycle blocking compounds. The incubation was carried out overnight. The next day the media was removed from the cells and 100 μL of Tropix/ABI Gal screen cell lysis/substrate reagent was added to the cells.

[3] = tested on: C2C12+EA-NLS/NRS+GR-PL cells; test: EFC mitotic index assay, C2C12+EA-NLS/NRS+GR-PL cells (Stanford GR cells); assay type: cell-based, mouse; conditions: for Avg luminescence readout / R1 luminescence readout / R3 luminescence readout / Ratio (Avg vs 0 conc): 24 hours, 30 min read
Description: (§2) In all experiments described, 20,000 cells/well were plated in a 96 well Corning clear bottom white plate in a total volume of 100 μL. The cells were treated for 24 hours with 5 μL of either the appropriate vehicle control or varying concentrations of the six compounds listed above. The next day, 100 μL of Tropix/ABI Gal screen cell lysis buffer/substrate mixture (24:1 ratio of component) was added to the cells/media and the plate was read on the Victor II luminescent plate reader at 30, 60 and 120 minutes after the lysis/substrate addition.
as §1

[4] = tested on: CHO-K1+EA-NLS/NRS+GR-PL cells; test: EFC mitotic index assay, CHO-K1+EA-NLS/NRS+GR-PL cells, antibiotic selected pool (DX M19/GR pool); assay type: cell-based; conditions: 24 hours, 30 min read
Description: as §2, §1
In the next experiment, an antibiotic selected pool population of CHO-K1 cells that express EA-NLS/NRS and GR-PL were tested with the same six set of cell cycle blocking compounds. […] FIGS. 2a and 2b show the immunofluorescence localization of EA and GR-PL in that the blue DAPI nuclear staining can be seen to be concentrated in the nucleus, while the green fluorescein stain on the antibody (from Abcam PLC) to the glucocorticoid receptor is seen in the cytoplasm. […] Again, six tables are presented one for each of the six drugs tested.
This only occurs with compounds that block the cells in mitosis, allowing EA and ProLabel to complement.

[5] = High conc (nocodazole 10 μg/mL, colchicine 1 μ/mL, dexamethasone 300 μM, RU486 30 μM)
[6] = Low conc (nocodazole 1.11 μg/mL, colchicine 0.1 μ/mL, dexamethasone 30 μM, RU486 3.33 μM)
[7] = Med conc (nocodazole 3.33 μg/mL, colchicine 0.3 μ/mL, dexamethasone 100 μM, RU486 10 μM)

SMILES: COC(=O)Nc1nc2ccc(C(=O)c3cccs3)cc2[nH]1 [Nocodazole, nocodazole]
- effect of incubation with RU486 on the EFC response (in words) ([1]; 10 μM RU486 pre-incubation for one hour): not blocked by the incubation with RU486
- Avg luminescence readout [1, 5]: 11592
- R1 luminescence readout [1, 5]: 11504
- R3 luminescence readout [1, 5]: 11616
- Ratio (Avg vs 0 conc) [1, 5]: 4
- Avg luminescence readout [1, 6]: 11575
- R1 luminescence readout [1, 6]: 11488
- R3 luminescence readout [1, 6]: 11606
- Ratio (Avg vs 0 conc) [1, 6]: 4
- Avg luminescence readout [1, 7]: 11445
- R1 luminescence readout [1, 7]: 11364
- R3 luminescence readout [1, 7]: 11457
- Ratio (Avg vs 0 conc) [1, 7]: 4
- Avg luminescence readout ([2]; 3.0 μg/mL): 9887
- R1 luminescence readout ([2]; 3.0 μg/mL): 9509
- R3 luminescence readout ([2]; 3.0 μg/mL): 9751
- Ratio (Avg vs 0 conc) ([2]; 3.0 μg/mL): 1.4
- Avg luminescence readout ([2]; 10.0 μg/mL): 12728
- R1 luminescence readout ([2]; 10.0 μg/mL): 11991
- R3 luminescence readout ([2]; 10.0 μg/mL): 12371
- Ratio (Avg vs 0 conc) ([2]; 10.0 μg/mL): 1.8
- Avg luminescence readout ([2]; 30.0 μg/mL): 11870
- R1 luminescence readout ([2]; 30.0 μg/mL): 10083
- R3 luminescence readout ([2]; 30.0 μg/mL): 12287
- Ratio (Avg vs 0 conc) ([2]; 30.0 μg/mL): 1.6
- Avg luminescence readout ([2]; 100.0 μg/mL): 14898
- R1 luminescence readout ([2]; 100.0 μg/mL): 13010
- R3 luminescence readout ([2]; 100.0 μg/mL): 16060
- Ratio (Avg vs 0 conc) ([2]; 100.0 μg/mL): 2.1
- increase in EFC activity ([2]; overnight incubation): ~2.1 fold
- Avg luminescence readout ([3]; 0.3 μg/mL): 4443
- R1 luminescence readout ([3]; 0.3 μg/mL): 4243
- R3 luminescence readout ([3]; 0.3 μg/mL): 4599
- Ratio (Avg vs 0 conc) ([3]; 0.3 μg/mL): 1
- Avg luminescence readout ([3]; 1.0 μg/mL): 6354
- R1 luminescence readout ([3]; 1.0 μg/mL): 6029
- R3 luminescence readout ([3]; 1.0 μg/mL): 6678
- Ratio (Avg vs 0 conc) ([3]; 1.0 μg/mL): 2
- Avg luminescence readout ([3]; 3.3 μg/mL): 6068
- R1 luminescence readout ([3]; 3.3 μg/mL): 5669
- R3 luminescence readout ([3]; 3.3 μg/mL): 6360
- Ratio (Avg vs 0 conc) ([3]; 3.3 μg/mL): 2
- Avg luminescence readout ([3]; 10.0 μg/mL): 5867
- R1 luminescence readout ([3]; 10.0 μg/mL): 4401
- R3 luminescence readout ([3]; 10.0 μg/mL): 5806
- Ratio (Avg vs 0 conc) ([3]; 10.0 μg/mL): 2
- increase in EFC activity ([3]; treatment 1-10 μg/mL): ~2 fold
- Avg luminescence readout ([4]; 0.3 μg/mL): 15528
- R1 luminescence readout ([4]; 0.3 μg/mL): 15003
- R3 luminescence readout ([4]; 0.3 μg/mL): 13585
- Ratio (Avg vs 0 conc) ([4]; 0.3 μg/mL): 2
- Avg luminescence readout ([4]; 1.0 μg/mL): 24777
- R1 luminescence readout ([4]; 1.0 μg/mL): 23225
- R3 luminescence readout ([4]; 1.0 μg/mL): 24165
- Ratio (Avg vs 0 conc) ([4]; 1.0 μg/mL): 3
- Avg luminescence readout ([4]; 3.3 μg/mL): 23766
- R1 luminescence readout ([4]; 3.3 μg/mL): 24010
- R3 luminescence readout ([4]; 3.3 μg/mL): 23172
- Ratio (Avg vs 0 conc) ([4]; 3.3 μg/mL): 3
- Avg luminescence readout ([4]; 10.0 μg/mL): 25709
- R1 luminescence readout ([4]; 10.0 μg/mL): 22978
- R3 luminescence readout ([4]; 10.0 μg/mL): 28584
- Ratio (Avg vs 0 conc) ([4]; 10.0 μg/mL): 3

Reference: US20070015232A1, “Mitotic index assay” (DiscoveRx, Inc., priority 2005, published 2007)
